pIC50: −log10 of the molar value.
Assays:
[1] = test system: phosphorylated MLC (downstream effector of RhoA); assay: Western blotting of phosphorylated MLC, serum starvation-restimulation; format: cell-based, human; conditions: HCT116, serum starvation-restimulation
Description: Anti-RhoA (#2117), anti-GAPDH (#2118), anti-phosphoMLC (#3671), anti-MLC (#3672), anti-FLAG (#8146), anti-GFP (#2956), and anti-GST (#2624) were purchased from Cell Signaling Technology. Cells were washed with PBS and then harvested using cell lysis buffer (1% Triton X100, 10 mM beta glycerol phosphate, 10 mM sodium pyrophosphate, 40 mM HEPES, 4 mM EDTA, pH7.4) with 4% protease/phosphatase inhibitor cocktail (Pierce). Protein samples were quantified using BCA assays (Pierce), normalized and then boiled with 4× Laemmli sampling buffer in 95° C. for 5 mins. Samples were resolved in 10% polyacrylamide gel (Biorad) and then transferred onto PVDF membrane (Biorad) and blocked with blocking buffer (5% bovine serum albumin (BSA) in Tris-buffered saline with 0.1% Tween 20 (TBST)) for 1 h. Membrane was washed in TBST, followed by incubation with corresponding primary antibodies (diluted 1:1000 in 5% BSA/milk in TBST with 1% NaN3) overnight at 4° C. After washing thrice with TBST, the membrane was incubated with HRP-conjugated secondary antibodies (#7074 or 7076) for one hour at room temperature. The membrane was then incubated with LumiGlo reagent (Cell Signaling Technology) and chemiluminescence was captured using a Chemidoc (Biorad).
The effects of CL16 on RhoA downstream signals in CRCs with serum starvation-restimulation were examined.

HT29 spheroid = assay: Spheroid formation assay, HT29; format: cell-based, human
Description: FIGS. 5A-5B are graphs showing the anticancer effects of CL16 in HT29 (FIG. 5A) and SW620 (FIG. 5B) spheroids. HT29 spheroid or SW620 spheroid were treated with CL16 at the indicated concentrations for 10 days. The spheroids were then imaged by microscope using 10× objective and the size was determined by ImageJ.
5,000 cells of HT29 and SW620 cells were inoculated in serum-free DMEM/F12 medium with 20 ng/mL […] growth factor (EGF) in 96-well round-bottom low-affinity plate (Nunc). Medium was supplemented with CL16 or Rhosin when spheroid has formed an opaque core. Morphology was recorded under a light microscope with 10× objective.
To further investigate the anticancer effects of CL16, HT29 and SW620 cells were inoculated as spheroids in low-affinity plate with 20 ng/mL EGF, and incubated with different concentrations of CL16 or Rhosin.

RhoA WT = target: T1, RhoA WT (Homo sapiens, UniProt P61586); assay: RhoA-GTP rhotekin pull-down in HT29 cells expressing RhoA WT; format: cell-based; conditions: 24 h
T1 construct: endogenous in cells; host or cells: HT29
T1 sequence (P61586 whole entry): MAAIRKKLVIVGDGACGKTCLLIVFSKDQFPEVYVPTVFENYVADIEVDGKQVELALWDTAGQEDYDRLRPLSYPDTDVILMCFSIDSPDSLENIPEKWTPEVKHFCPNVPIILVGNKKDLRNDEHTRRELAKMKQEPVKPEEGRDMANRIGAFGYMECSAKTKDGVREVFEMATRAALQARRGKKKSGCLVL
Description: RhoA Pull-Down Activation Assay Biochem Kit (#BK036) was purchased from Cytoskeleton. According to the manufacturer's protocol, total cell lysate (0.5 mg/mL; 300 μL) was added to 7.5 μL of Rhotekin-Rho Binding Domain beads in 0.6 mL tubes. The solution mixture was incubated at 4° C. on an end-to-end rotator for 1 hour. Beads were washed with 500 μL of washing buffer once, then centrifuged at 5000g for 3 min and the supernatant was discarded. RhoA-GTP was then eluted in 2× laemmli buffer and resolved in 10% SDS-PAGE.
The effects of CL16 in HT29 cells expressing RhoA WT protein and HT29 cells with RhoA C16 Å knock-in by CRISPR-Cas9 were investigated, respectively, to validate the molecular mechanism of RhoA inhibition and anti-cancer properties from CL16. […] HT29 cells expressing RhoA WT or C16 Å protein were incubated with solvent vehicle, CL16 or Rhosin in complete medium for 24 h. The cells were then washed, lysed, subjected to rhotekin pull-down and immunoblotted. […] Wound healing assay on HT29 cells expressing RhoA WT or C16 Å protein were incubated with solvent vehicle, CL16 or Rhosin in complete medium for 48 h (FIGS. 19A and 19B).

RhoA = RhoA (Homo sapiens, UniProt P61586); assay: LC-MS/MS on HCT116 cells treated with CL16; format: cell-based; set-up: endogenous in cells; host or cells: HCT116; conditions: CL16 25 or 50 μM, 4 hours
RhoA, sequence (P61586 whole entry): as above
Description: HCT116 cells were treated with DMSO or CL16 (25 or 50 μM) in complete medium for 4 hours, washed with PBS, harvested, and lysed in PBS by sonication. The protein amount of the samples was determined by BCA assay and normalized. The cell lysates in PBS were reduced by TCEP (1 mM) at 65° C. for 30 min, followed by alkylation with iodoacetamide (18 mM) at 37° C. for 30 min in the dark. The mixtures were added with prechilled acetone (600 μL) for protein precipitation at −20° C. overnight. The samples were centrifuged at 8000g for 10 min at 4° C. The supernatant was discarded and the dried pellet was resuspended in […] in PBS (100 μL). Sequencing grade trypsin (Promega #V5111) were added to the samples for overnight digestion at 37° C. with constant shaking. The solutions were then acidified with formic acid (FA; final concentration 5%), centrifuged at 13,200 rpm for 30 min at 4° C. The supernatant was collected and stored at −80° C. before MS analysis.
The peptide solutions were dried and desalted by C18 Stage tips, and the peptides were loaded onto an Aurora C18 UHPLC column (75 μm i.d.×25 cm length×1.6 μm particle size (IonOpticks Australia) coupled to timsTOF Pro mass spectrometer (Bruker). […]

covalent modification site on RhoA (RhoA): Cys16
SMILES: O=C(CCl)N1N=C(c2cc3ccccc3o2)CC1c1ccco1 (centres unmarked) [CL16]
phosphorylation of MLC upon serum re-stimulation [1]: significantly eliminated the increases in phosphorylation of MLC
growth of HT29 spheroids (HT29 spheroid; 20 ng/mL EGF, low-affinity plate): significant inhibitions in the growth
pIC50 (HT29 spheroid; Homo sapiens, HT-29, 240 h, 10 days, read-out: cytotoxic IC50 in HT29 spheroids): 5.25
active RhoA-GTP level (RhoA WT): significant decrease in the active RhoA-GTP level
